The results in this text go back to article PMC12326981, “Novel C5α-substituted carbapenems enhance Mycobacterium abscessus killing via selective target binding and reduced hydrolysis by BlaMab” (Antimicrobial Agents and Chemotherapy, 2025).

A word on the kcat: it is the number of substrate molecules converted per active site and unit of time at saturation.

One experiment concerns the target T1, PBP-lipo (Mycobacteroides abscessus, UniProt B1MDC3).
T1 construct: made in house; host or cells: Escherichia coli BL21 (DE3)
As to the kind of experiment: Apparent inhibition constant (nitrocefin, Dixon plot). The class given is biochemical. As to conditions: Ki,app. On the procedure:
(§1) Steady-state kinetic studies with JDB/NA-1-157 and JDB/NA-1-208 were performed using purified LDTs and PBPs, including LDT1–5, PBP-B, PBP-lipo, and D,D-carboxypeptidase. The assays were conducted on a BioTek Synergy2 multimode reader equipped with Gen5 software. To determine the Michaelis constant (Km^NCF) for each LDT and PBP, a wide range of NCF concentrations was tested, while the enzyme concentrations were fixed. Absorbance changes at 482 nm were monitored over 10 min. Steady-state kinetic parameters (Vmax and Km) were derived by fitting the experimental data to the Henri–Michaelis–Menten equation using nonlinear least-squares regression in GraphPad Prism version 9. The reaction velocity (v) at a given substrate concentration ([S]) was calculated using equation 2: […]
(§2) The apparent inhibition constants (Ki,app) for JDB/NA-1-157 and JDB/NA-1-208 were determined under the following conditions: an NCF concentration of 5 × Km, fixed concentrations of LDT or PBP enzymes, and varying concentrations of JDB/NA-1-157 and JDB/NA-1-208. Absorbance changes at 482 nm were monitored over a 30 min period for each inhibitor concentration. The data were linearized using a Dixon plot, which involves plotting the reciprocal of the absorbance change (1/ΔA) against the concentrations of JDB/NA-1-157 or JDB/NA-1-208. Apparent Ki,app values were derived from the intersection points on the Dixon plot and were subsequently corrected for substrate concentration and enzyme affinity using equation 3:
(§3) (3) Ki,app=observed Ki,app/1+[NCF]/Km NCF.

Another experiment concerns the target BlaMab (Mycobacteroides abscessus, UniProt B1MCI3). In words: Steady-state kinetics of hydrolysis by BlaMab. To be noted: best-fit value (95% confidence interval); MES buffer pH 6.4, room temperature. The class given is biochemical, Mycobacterium abscessus.
A further experiment deals with 18 clinical isolates. In words: MIC distribution against 18 clinical isolates (and Mab ATCC 19977). The class given is cell-based, Mycobacterium abscessus. As to conditions: single agent, 18 clinical isolates (Fig. 3 also Mab ATCC 19977). From the text:
We investigated the effect of C5α-substituted carbapenems (C5α-methyl, JDB/NA-1-157 or 10a and C5α-ethyl, JDB/NA-1-208, or 10b) against Mab strain ATCC 19977, which produces BlaMab, alongside 18 clinical isolates obtained from de-identified patients. These clinical isolates were sourced from National Jewish Health, University Hospitals Cleveland Medical Center, and Cleveland MetroHealth. The strains were utilized for MIC assays and static drug concentration time-kill (SCTK) experiments. Two C5α-substituted carbapenems were designed and synthesized in the Buynak lab at SMU ([31]). The active forms of cefuroxime salts, imipenem, amoxicillin, sulbactam, and avibactam were purchased from AchemBlock, while durlobactam was provided by Innoviva Specialty Therapeutics. All β-lactams and BLIs were prepared in sterile distilled water and subsequently filter-sterilized using a 0.22 µm polyethersulfone syringe filter.
MICs were determined in duplicate following Clinical Laboratory Standards Institute ([52]) guidelines using Middlebrook 7H9 broth supplemented with 10% (vol/vol) oleic acid-albumin-dextrose-catalase (OADC) and 0.05% (vol/vol) Tween 80, with an inoculum of 5 × 10⁵ CFU/mL. […]

For another experiment, the target named is LDT5 (Mycobacteroides abscessus, UniProt B1MHQ4). As to the kind of experiment: Apparent inhibition constant (nitrocefin, Dixon plot). The class given is biochemical, Mycobacterium abscessus. To be noted: read-out: Ki,app. On the procedure:
as §1, §2, §3

Where “and” joins values, the source holds several entries; their conditions need not be identical. Equal entries are not always repeated.

Chain of BlaMab (B1MCI3 entry or part of it): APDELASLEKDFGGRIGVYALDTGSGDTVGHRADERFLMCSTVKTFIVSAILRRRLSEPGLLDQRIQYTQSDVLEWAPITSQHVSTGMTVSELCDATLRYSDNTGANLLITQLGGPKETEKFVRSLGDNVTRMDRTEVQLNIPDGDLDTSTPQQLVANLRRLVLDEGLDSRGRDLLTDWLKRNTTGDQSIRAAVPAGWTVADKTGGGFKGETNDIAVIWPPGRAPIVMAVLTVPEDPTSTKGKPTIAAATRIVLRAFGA
Chain of LDT5 (B1MHQ4 entry or part of it): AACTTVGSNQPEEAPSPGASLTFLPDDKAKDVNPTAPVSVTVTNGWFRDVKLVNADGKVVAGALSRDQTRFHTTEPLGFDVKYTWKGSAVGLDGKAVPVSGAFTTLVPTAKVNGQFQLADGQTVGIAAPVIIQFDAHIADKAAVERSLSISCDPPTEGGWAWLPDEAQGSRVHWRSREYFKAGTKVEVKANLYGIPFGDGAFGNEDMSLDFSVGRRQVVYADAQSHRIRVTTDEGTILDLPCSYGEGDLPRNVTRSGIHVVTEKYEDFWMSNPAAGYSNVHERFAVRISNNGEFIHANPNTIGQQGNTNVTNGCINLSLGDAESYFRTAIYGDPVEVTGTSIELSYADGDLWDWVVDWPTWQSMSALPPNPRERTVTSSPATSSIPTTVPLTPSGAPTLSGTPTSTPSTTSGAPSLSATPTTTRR
T1 sequence (B1MDC3 entry or part of it): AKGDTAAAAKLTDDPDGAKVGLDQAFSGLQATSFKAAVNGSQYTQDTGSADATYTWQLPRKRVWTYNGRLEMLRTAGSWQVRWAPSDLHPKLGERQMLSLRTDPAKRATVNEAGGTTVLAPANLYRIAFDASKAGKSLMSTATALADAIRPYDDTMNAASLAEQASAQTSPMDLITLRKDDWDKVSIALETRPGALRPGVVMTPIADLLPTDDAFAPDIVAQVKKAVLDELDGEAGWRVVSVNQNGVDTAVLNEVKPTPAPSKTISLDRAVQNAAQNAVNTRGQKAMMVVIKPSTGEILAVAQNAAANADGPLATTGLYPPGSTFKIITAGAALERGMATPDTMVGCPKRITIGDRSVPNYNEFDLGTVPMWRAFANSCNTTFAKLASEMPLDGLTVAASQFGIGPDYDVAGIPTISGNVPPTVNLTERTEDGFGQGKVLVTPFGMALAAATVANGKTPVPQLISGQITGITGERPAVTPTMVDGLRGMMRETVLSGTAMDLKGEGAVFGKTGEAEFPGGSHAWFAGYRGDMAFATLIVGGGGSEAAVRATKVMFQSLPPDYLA

On to `C[C@@H](O)[C@H]1C(=O)N2C(C(=O)O)=C(S[C@@H]3CN[C@H](C(=O)N(C)C)C3)C[C@]12C` [JDB/NA-1-157], for which the Ki on PBP-lipo was 0.258 µM. The kcat at BlaMab was 0.03 s⁻¹. Also, the MIC range in the experiment with 18 clinical isolates was 0.125 to 8.0 µg/mL and 0.125 to 8 µg/mL.

In the case of `CC[C@]12CC(S[C@@H]3CN[C@H](C(=O)N(C)C)C3)=C(C(=O)O)N1C(=O)[C@@H]2[C@@H](C)O` [JDB/NA-1-208], the Ki on LDT5 is 28.9 µM.
